Key:
Assay in all cases: Weeding effect in post-emergence stage
Assay type in all cases: in vivo
Conditions in all cases: 250 g/ha; 2 leaf stage; 15 days after application; fresh weight control rate
Abutilon theophrasti = system: Abutilon theophrasti
Method in brief: (§1)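 Pot-grown weeds sprayed post-emergence at the 2-leaf stage, 2 weeks after sowing, with compound in acetone/Tween 80 plus 1.5 L/ha methyl oleate concentrate at 500–15 g/ha. Fresh-weight growth control scored after 15 days in greenhouse, mean of three replicates, graded levels 0–5 (5: >85%, 0: <5%).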

Amaranthus retroflexus = system: Amaranthus retroflexus
Method in brief: as §1

Digitaria sanguinalis = system: Digitaria sanguinalis
Method in brief: as §1

Echinochloa crusgali = system: Echinochloa crusgali
Method in brief: as §1

Cc1c(C(=O)Nc2nnnn2C)ccc(S(C)(=O)=O)c1[S@+]([O-])CC1CC1 [Compound 518]
weeding effect in post-emergence stage, activity level (growth control rate), Abutilon theophrasti (Abutilon theophrasti): 5 (Level 5: growth control rate is above 85%) | weeding effect in post-emergence stage, activity level (growth control rate), Amaranthus retroflexus (Amaranthus retroflexus): 5 (Level 5: growth control rate is above 85%) | weeding effect in post-emergence stage, activity level (growth control rate), Digitaria sanguinalis (Digitaria sanguinalis): 5 (Level 5: growth control rate is above 85%) | weeding effect in post-emergence stage, activity level (growth control rate), Echinochloa crusgali (Echinochloa crusgali): 5 (Level 5: growth control rate is above 85%)

CC(=O)C[S@@+]([O-])c1c(S(C)(=O)=O)ccc(C(=O)Nc2nnnn2C)c1C [Compound 609]
weeding effect in post-emergence stage, activity level (growth control rate), Amaranthus retroflexus (Amaranthus retroflexus): 5 (Level 5: growth control rate is above 85%) | weeding effect in post-emergence stage, activity level (growth control rate), Digitaria sanguinalis (Digitaria sanguinalis): 5 (Level 5: growth control rate is above 85%) | weeding effect in post-emergence stage, activity level (growth control rate), Echinochloa crusgali (Echinochloa crusgali): 5 (Level 5: growth control rate is above 85%)

Cc1nnc(NC(=O)c2ccc(S(C)(=O)=O)c([S@+]([O-])CCC#N)c2C)o1 [Compound 610]
weeding effect in post-emergence stage, activity level (growth control rate), Amaranthus retroflexus (Amaranthus retroflexus): 5 (Level 5: growth control rate is above 85%) | weeding effect in post-emergence stage, activity level (growth control rate), Digitaria sanguinalis (Digitaria sanguinalis): 5 (Level 5: growth control rate is above 85%) | weeding effect in post-emergence stage, activity level (growth control rate), Echinochloa crusgali (Echinochloa crusgali): 5 (Level 5: growth control rate is above 85%)

CC(=O)C[S@@+]([O-])c1c(S(C)(=O)=O)ccc(C(=O)Nc2nnc(C)o2)c1C [Compound 611]
weeding effect in post-emergence stage, activity level (growth control rate), Amaranthus retroflexus (Amaranthus retroflexus): 5 (Level 5: growth control rate is above 85%) | weeding effect in post-emergence stage, activity level (growth control rate), Digitaria sanguinalis (Digitaria sanguinalis): 5 (Level 5: growth control rate is above 85%) | weeding effect in post-emergence stage, activity level (growth control rate), Echinochloa crusgali (Echinochloa crusgali): 5 (Level 5: growth control rate is above 85%)

CCOCCn1nnnc1NC(=O)c1ccc(S(C)(=O)=O)c([S@+]([O-])CC)c1C [Compound 612]
weeding effect in post-emergence stage, activity level (growth control rate), Amaranthus retroflexus (Amaranthus retroflexus): 5 (Level 5: growth control rate is above 85%) | weeding effect in post-emergence stage, activity level (growth control rate), Digitaria sanguinalis (Digitaria sanguinalis): 5 (Level 5: growth control rate is above 85%) | weeding effect in post-emergence stage, activity level (growth control rate), Echinochloa crusgali (Echinochloa crusgali): 5 (Level 5: growth control rate is above 85%)

C=CCC[S@@+]([O-])c1c(S(C)(=O)=O)ccc(C(=O)Nc2nnnn2C)c1C [Compound 619]
weeding effect in post-emergence stage, activity level (growth control rate), Amaranthus retroflexus (Amaranthus retroflexus): 5 (Level 5: growth control rate is above 85%) | weeding effect in post-emergence stage, activity level (growth control rate), Digitaria sanguinalis (Digitaria sanguinalis): 5 (Level 5: growth control rate is above 85%) | weeding effect in post-emergence stage, activity level (growth control rate), Echinochloa crusgali (Echinochloa crusgali): 5 (Level 5: growth control rate is above 85%)

Cc1c(C(=O)Nc2nnnn2C)ccc(S(C)(=O)=O)c1[S@+]([O-])CC(C)O (stereo partly shown) [Compound 620]
weeding effect in post-emergence stage, activity level (growth control rate), Amaranthus retroflexus (Amaranthus retroflexus): 5 (Level 5: growth control rate is above 85%) | weeding effect in post-emergence stage, activity level (growth control rate), Digitaria sanguinalis (Digitaria sanguinalis): 5 (Level 5: growth control rate is above 85%) | weeding effect in post-emergence stage, activity level (growth control rate), Echinochloa crusgali (Echinochloa crusgali): 5 (Level 5: growth control rate is above 85%)

Cc1nnc(NC(=O)c2ccc(Cl)c([S@@+](C)[O-])c2Cl)o1 [Compound 621]
weeding effect in post-emergence stage, activity level (growth control rate), Amaranthus retroflexus (Amaranthus retroflexus): 5 (Level 5: growth control rate is above 85%) | weeding effect in post-emergence stage, activity level (growth control rate), Digitaria sanguinalis (Digitaria sanguinalis): 5 (Level 5: growth control rate is above 85%) | weeding effect in post-emergence stage, activity level (growth control rate), Echinochloa crusgali (Echinochloa crusgali): 5 (Level 5: growth control rate is above 85%)

CC[S@@+]([O-])c1c(S(C)(=O)=O)ccc(C(=O)Nc2nnnn2CCOC)c1C [Compound 622]
weeding effect in post-emergence stage, activity level (growth control rate), Amaranthus retroflexus (Amaranthus retroflexus): 5 (Level 5: growth control rate is above 85%) | weeding effect in post-emergence stage, activity level (growth control rate), Digitaria sanguinalis (Digitaria sanguinalis): 5 (Level 5: growth control rate is above 85%) | weeding effect in post-emergence stage, activity level (growth control rate), Echinochloa crusgali (Echinochloa crusgali): 5 (Level 5: growth control rate is above 85%)

Cc1nnc(NC(=O)c2ccc(F)c([S@@+](C)[O-])c2F)o1 [Compound 623]
weeding effect in post-emergence stage, activity level (growth control rate), Amaranthus retroflexus (Amaranthus retroflexus): 5 (Level 5: growth control rate is above 85%) | weeding effect in post-emergence stage, activity level (growth control rate), Digitaria sanguinalis (Digitaria sanguinalis): 5 (Level 5: growth control rate is above 85%) | weeding effect in post-emergence stage, activity level (growth control rate), Echinochloa crusgali (Echinochloa crusgali): 5 (Level 5: growth control rate is above 85%)

C#CCC[S@@+]([O-])c1c(S(C)(=O)=O)ccc(C(=O)Nc2nnc(C)o2)c1C [Compound 624]
weeding effect in post-emergence stage, activity level (growth control rate), Amaranthus retroflexus (Amaranthus retroflexus): 5 (Level 5: growth control rate is above 85%) | weeding effect in post-emergence stage, activity level (growth control rate), Digitaria sanguinalis (Digitaria sanguinalis): 5 (Level 5: growth control rate is above 85%) | weeding effect in post-emergence stage, activity level (growth control rate), Echinochloa crusgali (Echinochloa crusgali): 5 (Level 5: growth control rate is above 85%)

Cc1nnc(NC(=O)c2ccc(S(C)(=O)=O)c([S@+]([O-])CCS(C)(=O)=O)c2C)o1 [Compound 625]
weeding effect in post-emergence stage, activity level (growth control rate), Amaranthus retroflexus (Amaranthus retroflexus): 5 (Level 5: growth control rate is above 85%) | weeding effect in post-emergence stage, activity level (growth control rate), Digitaria sanguinalis (Digitaria sanguinalis): 5 (Level 5: growth control rate is above 85%) | weeding effect in post-emergence stage, activity level (growth control rate), Echinochloa crusgali (Echinochloa crusgali): 5 (Level 5: growth control rate is above 85%)

Cc1c(C(=O)Nc2nnnn2C)ccc(S(C)(=O)=O)c1[S+]([O-])CC1CCC1 (stereo not shown) [Compound 626]
weeding effect in post-emergence stage, activity level (growth control rate), Amaranthus retroflexus (Amaranthus retroflexus): 5 (Level 5: growth control rate is above 85%) | weeding effect in post-emergence stage, activity level (growth control rate), Digitaria sanguinalis (Digitaria sanguinalis): 5 (Level 5: growth control rate is above 85%) | weeding effect in post-emergence stage, activity level (growth control rate), Echinochloa crusgali (Echinochloa crusgali): 5 (Level 5: growth control rate is above 85%)

Cc1nnc(NC(=O)c2ccc(S(C)(=O)=O)c([S@+]([O-])CCC(F)=C(F)F)c2C)o1 [Compound 627]
weeding effect in post-emergence stage, activity level (growth control rate), Amaranthus retroflexus (Amaranthus retroflexus): 5 (Level 5: growth control rate is above 85%) | weeding effect in post-emergence stage, activity level (growth control rate), Digitaria sanguinalis (Digitaria sanguinalis): 5 (Level 5: growth control rate is above 85%) | weeding effect in post-emergence stage, activity level (growth control rate), Echinochloa crusgali (Echinochloa crusgali): 5 (Level 5: growth control rate is above 85%)

Cc1nnc(NC(=O)c2ccc(S(C)(=O)=O)c([S@+]([O-])CCCO)c2C)o1 [Compound 628]
weeding effect in post-emergence stage, activity level (growth control rate), Amaranthus retroflexus (Amaranthus retroflexus): 5 (Level 5: growth control rate is above 85%) | weeding effect in post-emergence stage, activity level (growth control rate), Digitaria sanguinalis (Digitaria sanguinalis): 5 (Level 5: growth control rate is above 85%) | weeding effect in post-emergence stage, activity level (growth control rate), Echinochloa crusgali (Echinochloa crusgali): 5 (Level 5: growth control rate is above 85%)

CCn1nnnc1NC(=O)c1ccc(S(C)(=O)=O)c([S@+]([O-])CC)c1C [Compound 629]
weeding effect in post-emergence stage, activity level (growth control rate), Amaranthus retroflexus (Amaranthus retroflexus): 5 (Level 5: growth control rate is above 85%) | weeding effect in post-emergence stage, activity level (growth control rate), Digitaria sanguinalis (Digitaria sanguinalis): 5 (Level 5: growth control rate is above 85%) | weeding effect in post-emergence stage, activity level (growth control rate), Echinochloa crusgali (Echinochloa crusgali): 5 (Level 5: growth control rate is above 85%)

CCC[S@@+]([O-])c1c(C(F)F)ccc(C(=O)Nc2nnnn2C)c1SC [Compound 867]
weeding effect in post-emergence stage, activity level (growth control rate), Amaranthus retroflexus (Amaranthus retroflexus): 5 (Level 5: growth control rate is above 85%) | weeding effect in post-emergence stage, activity level (growth control rate), Digitaria sanguinalis (Digitaria sanguinalis): 5 (Level 5: growth control rate is above 85%) | weeding effect in post-emergence stage, activity level (growth control rate), Echinochloa crusgali (Echinochloa crusgali): 5 (Level 5: growth control rate is above 85%)

Source: patent US12643871B2, “Aryl formamide compound containing chiral sulfur oxide or salt thereof, preparation method, herbicidal composition and use thereof” (Qingdao Kingagroot Chemical Compound Co., Ltd., priority 2019, dated 2026)
